Laboratory results taken from ChEMBL document CHEMBL4507263, “Data for DCP probe BAY-474” (2021).

Columns and labels:
[1] = molecular target: PAS domain-containing serine/threonine-protein kinase (Homo sapiens) (UniProt Q96RG2); assay: PASK (h) Millipore kinase activity assay; settings: Compound concentration 1.0 uM
[2] = molecular target: Fibroblast growth factor receptor 4 (Homo sapiens) (UniProt P22455); assay: FGFR4 (h) Millipore kinase activity assay; settings: Compound concentration 1.0 uM
[3] = molecular target: Mitogen-activated protein kinase 13 (Homo sapiens) (UniProt O15264); assay: SAPK4 (h) Millipore kinase activity assay; settings: Compound concentration 1.0 uM
[4] = molecular target: Serine/threonine-protein kinase BRSK1 (Homo sapiens) (UniProt Q8TDC3); assay: BrSK1 (h) Millipore kinase activity assay; settings: Compound concentration 1.0 uM
Sequence of Serine/threonine-protein kinase BRSK1 (Homo sapiens) (Q8TDC3 whole entry): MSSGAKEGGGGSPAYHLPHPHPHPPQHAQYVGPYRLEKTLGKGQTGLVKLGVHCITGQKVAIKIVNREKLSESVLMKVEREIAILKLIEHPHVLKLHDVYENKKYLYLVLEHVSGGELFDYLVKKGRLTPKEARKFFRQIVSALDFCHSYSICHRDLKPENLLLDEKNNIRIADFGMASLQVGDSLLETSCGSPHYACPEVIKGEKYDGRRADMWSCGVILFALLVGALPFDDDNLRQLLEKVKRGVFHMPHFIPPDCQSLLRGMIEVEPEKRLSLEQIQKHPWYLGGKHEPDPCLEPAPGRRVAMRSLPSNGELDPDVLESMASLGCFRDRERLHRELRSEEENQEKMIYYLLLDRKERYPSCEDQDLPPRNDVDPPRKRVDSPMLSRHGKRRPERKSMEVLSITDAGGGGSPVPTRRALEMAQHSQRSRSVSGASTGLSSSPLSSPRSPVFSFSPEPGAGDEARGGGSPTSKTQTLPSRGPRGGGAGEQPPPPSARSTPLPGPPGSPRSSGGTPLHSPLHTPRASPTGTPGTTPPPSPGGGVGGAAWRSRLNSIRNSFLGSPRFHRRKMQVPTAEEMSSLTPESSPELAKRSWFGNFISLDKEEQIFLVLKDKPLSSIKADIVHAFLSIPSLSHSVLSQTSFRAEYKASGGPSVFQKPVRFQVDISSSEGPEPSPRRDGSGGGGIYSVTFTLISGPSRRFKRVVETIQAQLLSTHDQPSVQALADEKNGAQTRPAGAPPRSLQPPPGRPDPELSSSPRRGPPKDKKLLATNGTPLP

Rattus norvegicus [5] = species: Rattus norvegicus; assay: Testosterone Eurofins-Panlabs radioligand binding assay; design: ligand concentration 1.5 nM; settings: Compound concentration 10.0 uM
[6] = molecular target: Casein kinase II subunit alpha' (Homo sapiens) (UniProt P19784); assay: CK2alpha2 (h) Millipore kinase activity assay; settings: Compound concentration 1.0 uM
Sequence of Casein kinase II subunit alpha' (Homo sapiens) (P19784 whole entry, looked up): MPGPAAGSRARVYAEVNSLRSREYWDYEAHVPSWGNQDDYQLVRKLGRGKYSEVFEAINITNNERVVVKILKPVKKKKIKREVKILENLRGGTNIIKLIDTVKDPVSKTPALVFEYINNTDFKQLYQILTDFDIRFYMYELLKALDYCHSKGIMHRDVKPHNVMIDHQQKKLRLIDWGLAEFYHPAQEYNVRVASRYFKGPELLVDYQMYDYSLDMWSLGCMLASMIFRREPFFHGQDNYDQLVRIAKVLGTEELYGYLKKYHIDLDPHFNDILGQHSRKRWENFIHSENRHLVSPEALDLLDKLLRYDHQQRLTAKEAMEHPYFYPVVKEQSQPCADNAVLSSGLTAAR

[7] = molecular target: Tyrosine-protein kinase SYK (Homo sapiens) (UniProt P43405); assay: Syk (h) Millipore kinase activity assay; settings: Compound concentration 1.0 uM
[8] = molecular target: Neuropeptide Y receptor type 2 (Homo sapiens) (UniProt P49146); assay: Inhibition of Neuropeptide Y Y2 at 10 µM in the Eurofins-Panlabs radioligand binding assay (Eurofins_assay_257110); settings: Compound concentration 10.0 uM
[9] = molecular target: Serine/threonine-protein kinase TBK1 (Homo sapiens) (UniProt Q9UHD2); assay: TBK1 (h) Millipore kinase activity assay; settings: Compound concentration 1.0 uM
[10] = molecular target: Serine/threonine-protein kinase Sgk1 (Homo sapiens) (UniProt O00141); assay: SGK (h) Millipore kinase activity assay; settings: Compound concentration 1.0 uM
[11] = molecular target: Muscarinic acetylcholine receptor M3 (Homo sapiens) (UniProt P20309); settings: Compound concentration 10.0 uM
Sequence of Muscarinic acetylcholine receptor M3 (Homo sapiens) (P20309 whole entry, looked up): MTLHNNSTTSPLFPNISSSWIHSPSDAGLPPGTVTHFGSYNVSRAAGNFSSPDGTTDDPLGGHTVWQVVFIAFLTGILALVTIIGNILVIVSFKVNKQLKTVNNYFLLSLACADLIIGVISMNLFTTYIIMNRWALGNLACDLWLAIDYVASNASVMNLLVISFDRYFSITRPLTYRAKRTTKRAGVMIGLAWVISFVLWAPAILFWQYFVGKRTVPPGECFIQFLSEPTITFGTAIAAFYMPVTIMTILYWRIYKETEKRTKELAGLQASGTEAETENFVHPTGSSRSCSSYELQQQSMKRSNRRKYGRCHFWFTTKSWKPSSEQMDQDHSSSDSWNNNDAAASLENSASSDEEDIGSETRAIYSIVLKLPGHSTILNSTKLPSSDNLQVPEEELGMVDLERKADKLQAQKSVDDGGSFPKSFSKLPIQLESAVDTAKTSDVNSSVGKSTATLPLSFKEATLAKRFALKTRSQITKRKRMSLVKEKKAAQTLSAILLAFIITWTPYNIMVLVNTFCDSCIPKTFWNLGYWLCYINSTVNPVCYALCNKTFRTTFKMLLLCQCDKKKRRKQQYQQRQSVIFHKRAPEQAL

[12] = molecular target: Cyclin-dependent kinase 2/cyclin E (Homo sapiens) (UniProt P24864+P24941+O96020); assay: CDK2/cyclinE (h) Millipore kinase activity assay; type: protein-complex assay; settings: Compound concentration 1.0 uM
[13] = molecular target: Serine/threonine-protein kinase 17A (Homo sapiens) (UniProt Q9UEE5); assay: DRAK1 (h) Millipore kinase activity assay; settings: Compound concentration 1.0 uM
[14] = molecular target: T1, cGMP-dependent protein kinase 1 (Homo sapiens) (UniProt Q13976); assay: PKG1alpha (h) Millipore kinase activity assay; settings: Compound concentration 1.0 uM
T1 sequence (whole entry): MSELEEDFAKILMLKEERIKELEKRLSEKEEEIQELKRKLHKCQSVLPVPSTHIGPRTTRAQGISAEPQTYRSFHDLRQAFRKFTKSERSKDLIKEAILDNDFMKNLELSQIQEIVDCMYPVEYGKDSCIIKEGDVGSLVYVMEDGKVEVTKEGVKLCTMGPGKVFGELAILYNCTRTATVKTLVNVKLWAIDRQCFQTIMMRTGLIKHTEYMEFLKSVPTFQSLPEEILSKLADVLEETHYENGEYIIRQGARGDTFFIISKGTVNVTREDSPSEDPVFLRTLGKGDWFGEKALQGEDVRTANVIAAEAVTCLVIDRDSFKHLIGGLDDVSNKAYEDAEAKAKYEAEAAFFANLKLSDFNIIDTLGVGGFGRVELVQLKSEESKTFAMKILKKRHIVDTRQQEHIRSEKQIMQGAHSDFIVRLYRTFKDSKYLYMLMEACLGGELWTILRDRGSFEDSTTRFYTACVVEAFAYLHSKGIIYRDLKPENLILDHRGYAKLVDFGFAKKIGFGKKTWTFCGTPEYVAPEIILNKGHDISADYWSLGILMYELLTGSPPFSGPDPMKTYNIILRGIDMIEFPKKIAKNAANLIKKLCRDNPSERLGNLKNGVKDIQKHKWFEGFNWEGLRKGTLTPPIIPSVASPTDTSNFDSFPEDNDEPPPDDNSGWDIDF

[15] = molecular target: BDNF/NT-3 growth factors receptor (Homo sapiens) (UniProt Q16620); assay: TrkB (h) Millipore kinase activity assay; settings: Compound concentration 1.0 uM
[16] = molecular target: NT-3 growth factor receptor (Homo sapiens) (UniProt Q16288); settings: Compound concentration 1000.0 nM
[17] = molecular target: Casein kinase I isoform gamma-1 (Homo sapiens) (UniProt Q9HCP0); settings: Compound concentration 1000.0 nM
[18] = molecular target: Myosin-IIIa (Homo sapiens) (UniProt Q8NEV4); settings: Compound concentration 1000.0 nM
[19] = molecular target: Serine/threonine-protein kinase PLK4 (Homo sapiens) (UniProt O00444); settings: Compound concentration 1000.0 nM
[20] = molecular target: TRAF2 and NCK-interacting protein kinase (Homo sapiens) (UniProt Q9UKE5); settings: Compound concentration 1000.0 nM
[21] = molecular target: Tyrosine-protein kinase SYK (Homo sapiens) (UniProt P43405); settings: Compound concentration 1000.0 nM
[22] = molecular target: Angiopoietin-1 receptor (Homo sapiens) (UniProt Q02763); settings: Compound concentration 1000.0 nM
[23] = tested on: Phosphatidylinositol 4,5-bisphosphate 3-kinase catalytic subunit alpha isoform (Homo sapiens), P42336 [Q546K]; settings: Compound concentration 1000.0 nM
[24] = molecular target: Mitogen-activated protein kinase kinase kinase 19 (Homo sapiens) (UniProt Q56UN5); settings: Compound concentration 1000.0 nM
[25] = molecular target: Mitogen-activated protein kinase kinase kinase 15 (Homo sapiens) (UniProt Q6ZN16); settings: Compound concentration 1000.0 nM
[26] = molecular target: Mitogen-activated protein kinase 14 (Homo sapiens) (UniProt Q16539); settings: Compound concentration 1000.0 nM
[27] = tested on: Mast/stem cell growth factor receptor Kit (Homo sapiens), P10721 [V559D,V654A]; settings: Compound concentration 1000.0 nM
[28] = molecular target: Serine/threonine-protein kinase Nek3 (Homo sapiens) (UniProt P51956); settings: Compound concentration 1000.0 nM
[29] = tested on: Epidermal growth factor receptor (Homo sapiens), P00533 [L858R]; settings: Compound concentration 1000.0 nM
[30] = molecular target: Ribosomal protein S6 kinase alpha-6 (Homo sapiens) (UniProt Q9UK32); settings: Compound concentration 1000.0 nM
[31] = molecular target: Mitogen-activated protein kinase kinase kinase 5 (Homo sapiens) (UniProt Q99683); settings: Compound concentration 1000.0 nM
Rattus norvegicus [32] = species: Rattus norvegicus; settings: Compound concentration 10.0 uM
[33] = molecular target: Vascular endothelial growth factor receptor 1 (Homo sapiens) (UniProt P17948); settings: Compound concentration 1000.0 nM
[34] = molecular target: Phosphatidylinositol 4-kinase beta (Homo sapiens) (UniProt Q9UBF8); settings: Compound concentration 1000.0 nM
[35] = molecular target: Serine/threonine-protein kinase mTOR (Homo sapiens) (UniProt P42345); settings: Compound concentration 1000.0 nM
[36] = molecular target: Citron Rho-interacting kinase (Homo sapiens) (UniProt O14578); settings: Compound concentration 1000.0 nM
Sequence of Citron Rho-interacting kinase (Homo sapiens) (O14578 whole entry): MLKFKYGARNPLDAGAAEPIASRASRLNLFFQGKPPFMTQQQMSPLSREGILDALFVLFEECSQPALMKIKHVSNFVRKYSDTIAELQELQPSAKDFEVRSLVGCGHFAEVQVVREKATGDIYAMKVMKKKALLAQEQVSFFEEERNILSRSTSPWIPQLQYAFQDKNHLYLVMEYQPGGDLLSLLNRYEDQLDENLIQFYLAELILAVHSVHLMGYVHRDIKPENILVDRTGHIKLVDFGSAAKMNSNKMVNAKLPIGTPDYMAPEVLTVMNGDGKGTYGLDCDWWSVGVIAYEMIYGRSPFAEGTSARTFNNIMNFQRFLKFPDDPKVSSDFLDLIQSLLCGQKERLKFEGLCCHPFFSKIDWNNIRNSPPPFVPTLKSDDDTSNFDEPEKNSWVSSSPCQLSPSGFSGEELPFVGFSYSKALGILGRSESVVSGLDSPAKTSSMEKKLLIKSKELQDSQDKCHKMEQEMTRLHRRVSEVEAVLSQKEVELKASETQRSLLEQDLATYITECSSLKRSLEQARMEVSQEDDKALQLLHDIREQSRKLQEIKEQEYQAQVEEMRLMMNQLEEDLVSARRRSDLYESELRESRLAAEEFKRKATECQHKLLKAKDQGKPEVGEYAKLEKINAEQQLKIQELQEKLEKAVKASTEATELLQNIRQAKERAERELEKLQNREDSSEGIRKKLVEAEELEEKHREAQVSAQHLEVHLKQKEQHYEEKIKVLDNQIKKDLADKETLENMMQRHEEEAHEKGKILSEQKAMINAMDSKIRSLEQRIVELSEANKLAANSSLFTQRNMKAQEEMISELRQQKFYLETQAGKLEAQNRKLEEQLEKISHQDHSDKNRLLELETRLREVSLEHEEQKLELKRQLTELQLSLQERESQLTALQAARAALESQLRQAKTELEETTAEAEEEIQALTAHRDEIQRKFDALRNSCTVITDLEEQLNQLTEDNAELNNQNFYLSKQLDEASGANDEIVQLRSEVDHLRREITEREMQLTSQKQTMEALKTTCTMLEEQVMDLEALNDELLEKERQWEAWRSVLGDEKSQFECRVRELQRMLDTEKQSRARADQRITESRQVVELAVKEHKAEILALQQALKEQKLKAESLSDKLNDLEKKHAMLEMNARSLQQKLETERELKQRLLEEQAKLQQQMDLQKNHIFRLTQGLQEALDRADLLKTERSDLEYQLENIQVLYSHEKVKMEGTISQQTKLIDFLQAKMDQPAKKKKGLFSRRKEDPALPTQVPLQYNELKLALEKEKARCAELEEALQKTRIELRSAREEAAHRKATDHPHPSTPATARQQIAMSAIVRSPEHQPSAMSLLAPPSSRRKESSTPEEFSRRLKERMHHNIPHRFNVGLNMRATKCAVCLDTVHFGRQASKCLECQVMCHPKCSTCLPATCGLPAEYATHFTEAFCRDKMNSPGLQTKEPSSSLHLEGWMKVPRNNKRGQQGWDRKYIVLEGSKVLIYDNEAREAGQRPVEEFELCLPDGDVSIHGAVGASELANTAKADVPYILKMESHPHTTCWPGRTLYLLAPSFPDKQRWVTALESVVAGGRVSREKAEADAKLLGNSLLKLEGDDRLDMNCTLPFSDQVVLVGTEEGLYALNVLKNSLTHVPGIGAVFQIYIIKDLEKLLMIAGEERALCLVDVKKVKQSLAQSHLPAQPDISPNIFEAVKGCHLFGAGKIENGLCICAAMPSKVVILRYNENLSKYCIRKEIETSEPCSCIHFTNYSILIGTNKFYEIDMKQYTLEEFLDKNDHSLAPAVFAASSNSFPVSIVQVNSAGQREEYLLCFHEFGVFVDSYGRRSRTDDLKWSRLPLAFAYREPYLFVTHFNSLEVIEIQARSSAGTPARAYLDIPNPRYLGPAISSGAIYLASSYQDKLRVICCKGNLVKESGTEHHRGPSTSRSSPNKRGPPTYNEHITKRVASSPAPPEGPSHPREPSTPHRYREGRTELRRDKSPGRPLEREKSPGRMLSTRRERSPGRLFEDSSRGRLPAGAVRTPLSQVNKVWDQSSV

[37] = molecular target: Mitogen-activated protein kinase 4 (Homo sapiens) (UniProt P31152); settings: Compound concentration 1000.0 nM

Sequence of PAS domain-containing serine/threonine-protein kinase (Homo sapiens) (Q96RG2 whole entry, the tested form may be a part): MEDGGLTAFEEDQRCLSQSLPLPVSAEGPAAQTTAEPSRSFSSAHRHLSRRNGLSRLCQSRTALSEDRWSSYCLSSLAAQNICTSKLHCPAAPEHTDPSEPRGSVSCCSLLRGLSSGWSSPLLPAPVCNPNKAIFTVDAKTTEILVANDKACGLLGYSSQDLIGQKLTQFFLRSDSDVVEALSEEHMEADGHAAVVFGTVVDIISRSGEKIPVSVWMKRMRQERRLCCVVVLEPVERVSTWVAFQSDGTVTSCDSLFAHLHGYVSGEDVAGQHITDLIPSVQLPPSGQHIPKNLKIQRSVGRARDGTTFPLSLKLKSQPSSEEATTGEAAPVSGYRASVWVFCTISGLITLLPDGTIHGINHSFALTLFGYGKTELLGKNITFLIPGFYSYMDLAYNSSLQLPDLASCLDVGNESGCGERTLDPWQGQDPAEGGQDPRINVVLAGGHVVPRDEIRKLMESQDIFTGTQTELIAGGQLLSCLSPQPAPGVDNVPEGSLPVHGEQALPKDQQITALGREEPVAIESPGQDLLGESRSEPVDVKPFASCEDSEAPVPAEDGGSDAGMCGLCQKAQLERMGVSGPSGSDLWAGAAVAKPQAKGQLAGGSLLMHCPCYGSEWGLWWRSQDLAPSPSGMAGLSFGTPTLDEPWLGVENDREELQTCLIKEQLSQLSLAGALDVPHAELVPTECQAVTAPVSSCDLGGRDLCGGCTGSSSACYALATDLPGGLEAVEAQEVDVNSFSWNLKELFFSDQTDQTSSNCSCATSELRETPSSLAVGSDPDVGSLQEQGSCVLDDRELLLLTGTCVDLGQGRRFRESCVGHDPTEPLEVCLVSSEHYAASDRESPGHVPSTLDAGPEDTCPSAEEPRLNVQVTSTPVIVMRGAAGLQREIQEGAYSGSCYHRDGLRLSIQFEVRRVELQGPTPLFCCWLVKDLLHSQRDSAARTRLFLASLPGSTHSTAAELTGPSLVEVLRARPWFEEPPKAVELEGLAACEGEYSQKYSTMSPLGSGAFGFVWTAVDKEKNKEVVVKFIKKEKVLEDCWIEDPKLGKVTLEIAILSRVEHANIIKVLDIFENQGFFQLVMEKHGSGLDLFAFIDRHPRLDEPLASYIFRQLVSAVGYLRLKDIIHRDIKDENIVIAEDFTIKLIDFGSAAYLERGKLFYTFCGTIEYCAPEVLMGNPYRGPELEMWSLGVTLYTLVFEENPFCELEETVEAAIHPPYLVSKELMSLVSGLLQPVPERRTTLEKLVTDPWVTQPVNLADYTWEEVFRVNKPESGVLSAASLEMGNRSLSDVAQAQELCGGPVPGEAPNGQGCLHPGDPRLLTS

## CC1=C(C#N)C(c2ccc3[nH]nc(C)c3c2)C(C#N)=C(C)N1 [BAY-474]
[1]
  inhibition: 19%
[2]
  inhibition: 18%
[3]
  inhibition: 10%
[4]
  inhibition: 9%
Rattus norvegicus [5]
  inhibition: 12%
[6]
  inhibition: -2%
[7]
  inhibition: 8%
[8]
  inhibition: 3%
[9]
  inhibition: -6%
[10]
  inhibition: -2%
[11]
  inhibition: 2%
[12]
  inhibition: 9%
[13]
  inhibition: -6%
[14]
  inhibition: 7%
[15]
  inhibition: -2%

## CC1=C(C#N)[C@@H](c2ccc3[nH]nc(C)c3c2)C(C#N)=C(c2ccc(Cl)cc2)N1 [BAY-827]
[16]
  residual activity: 100%
[17]
  residual activity: 100%
[18]
  residual activity: 100%
[19]
  residual activity: 100%
[20]
  residual activity: 100%
[21]
  residual activity: 100%
[22]
  residual activity: 74.5%
[23]
  residual activity: 93.7%
[24]
  residual activity: 100%
[25]
  residual activity: 100%
[26]
  residual activity: 100%
[27]
  residual activity: 100%
[28]
  residual activity: 100%
[29]
  residual activity: 89.5%
[30]
  residual activity: 77.4%
[31]
  residual activity: 100%
Rattus norvegicus [32]
  inhibition: 69.5%
[33]
  residual activity: 100%
[34]
  residual activity: 95.1%
[35]
  residual activity: 79.6%
[36]
  residual activity: 100%
[37]
  residual activity: 89.6%
